Data: ChEMBL document CHEMBL3351803, “5Z-7-Oxozeaenol covalently binds to MAP2K7 at Cys218 in an unprecedented manner” (Bioorg Med Chem Lett, 2015)

How the values were obtained:
[1] = biological target: T1, Dual specificity mitogen-activated protein kinase kinase 7 (Homo sapiens, UniProt O14733); experiment: Inhibition of MAP2K7 (unknown origin) using unphosphorylated GST-tagged JNK1 substrate protein assessed as phosphorylation by ELISA
T1 sequence (O14733 whole entry): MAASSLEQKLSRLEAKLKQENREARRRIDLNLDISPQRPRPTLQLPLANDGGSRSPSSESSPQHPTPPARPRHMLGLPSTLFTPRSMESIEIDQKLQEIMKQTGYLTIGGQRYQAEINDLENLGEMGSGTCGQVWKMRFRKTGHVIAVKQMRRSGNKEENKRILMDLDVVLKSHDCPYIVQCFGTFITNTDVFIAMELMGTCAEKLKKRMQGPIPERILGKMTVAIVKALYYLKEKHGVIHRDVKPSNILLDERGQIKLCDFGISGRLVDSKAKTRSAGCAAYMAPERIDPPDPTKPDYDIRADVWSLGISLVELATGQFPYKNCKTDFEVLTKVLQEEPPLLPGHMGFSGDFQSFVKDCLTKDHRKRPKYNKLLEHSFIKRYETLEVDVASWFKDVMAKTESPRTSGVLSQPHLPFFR

[2] = biological target: Dual specificity mitogen-activated protein kinase kinase 1 (Homo sapiens, UniProt Q02750); experiment: Inhibition of MAP2K1 (unknown origin) using unphosphorylated GST-tagged ERK2 substrate protein assessed as phosphorylation by ELISA
[3] = biological target: Mitogen-activated protein kinase 1 (Homo sapiens, UniProt P28482); experiment: Inhibition of ERK2 (unknown origin) using FITC-labeled substrate peptide assessed as phosphorylation
Chain of Mitogen-activated protein kinase 1 (P28482 whole entry): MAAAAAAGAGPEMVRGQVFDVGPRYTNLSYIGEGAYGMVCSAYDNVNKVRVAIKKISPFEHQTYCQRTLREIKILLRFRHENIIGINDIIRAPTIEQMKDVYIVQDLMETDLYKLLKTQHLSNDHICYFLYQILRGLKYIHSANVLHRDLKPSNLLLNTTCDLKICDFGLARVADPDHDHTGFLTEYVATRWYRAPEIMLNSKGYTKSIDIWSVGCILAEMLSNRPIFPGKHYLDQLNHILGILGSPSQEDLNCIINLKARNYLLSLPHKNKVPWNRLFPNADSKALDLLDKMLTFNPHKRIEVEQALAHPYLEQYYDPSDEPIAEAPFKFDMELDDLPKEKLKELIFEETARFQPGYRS

Chain of Dual specificity mitogen-activated protein kinase kinase 1 (Q02750 whole entry): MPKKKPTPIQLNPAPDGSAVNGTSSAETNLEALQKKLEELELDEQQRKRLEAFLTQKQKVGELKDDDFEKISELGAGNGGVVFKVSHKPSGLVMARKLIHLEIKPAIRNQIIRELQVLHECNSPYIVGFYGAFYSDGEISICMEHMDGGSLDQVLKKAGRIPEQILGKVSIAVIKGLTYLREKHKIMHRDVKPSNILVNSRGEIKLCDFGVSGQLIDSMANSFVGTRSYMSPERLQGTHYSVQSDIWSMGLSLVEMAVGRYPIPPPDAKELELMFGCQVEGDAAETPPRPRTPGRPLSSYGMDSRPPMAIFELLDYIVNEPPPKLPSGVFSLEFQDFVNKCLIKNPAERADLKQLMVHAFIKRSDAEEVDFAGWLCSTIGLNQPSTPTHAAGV

## COc1cc(O)c2c(c1)/C=C/C[C@H](O)[C@H](O)C(=O)/C=C\C[C@H](C)OC2=O
[1]
  IC50: 1300 nM
[2]
  IC50: 80 nM
[3]
  IC50: 6800 nM
